Reference: ChEMBL document CHEMBL4184182, “Studies on interactions of carbazole derivatives with DNA, cell image, and cytotoxicity” (Bioorg Med Chem, 2018)

Assays:
[1] = tested on: Quadruplex DNA; assay: Binding affinity to human telomeric G-quadruplex DNA assessed as compound fluorescence life time at 5 uM after 5 mins in presence of sodium ion by fluorescence titration method (reference value: 0.192 nanoseconds); type: nucleic-acid assay
[2] = tested on: Quadruplex DNA; assay: Binding affinity to human telomeric G-quadruplex DNA assessed as hyperchromicity at 10 uM after 5 mins in presence of sodium ion by UV-Visible absorbance titration method; type: nucleic-acid assay

Time [1]: 2.15 nanoseconds
Activity [2]: 48.4%
Structure (SMILES): CCn1c2ccccc2c2cc(/C=C/c3sc4ccccc4[n+]3CC)ccc21.[I-]
